Among the test systems are OVCAR-8; SK-MEL-28; U-251; HCT-15; COLO 205; CCRF-CEM; OVCAR-5; OVCAR-3; SF-268; UO-31; RXF 393; SW-620; HOP-62; NCI-H23; SN12C; SK-MEL-5; SF-295; HT-29; SNB-19; NCI-H460.
Holding throughout (experiment): NCI-60 cell line screen, 48 h

Molecules are shown by their SMILES.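 Five compound concentrations were applied to cells in 96-well plates for 48 hours; endpoints were derived by simple linear interpolation of the resulting dose-response curve. GI50 is the concentration that inhibits growth by half.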 Activity calls are given as the source filed them. Cut-off read from the data, not from the text of the source: active = GI50 up to about 1.1 µM and inactive = higher.

These results are taken from ChEMBL document CHEMBL1201862, “PubChem BioAssay data set” (2004).

For `O=C(NCCCCCCNC(=O)n1cc(F)c(=O)[nH]c1=O)NCCCOCCOCCCNC(=O)C(O)C(O)C(O)C(O)CO` (stereo not given), the GI50 with OVCAR-8 is > 2.5 µM (inactive); with SK-MEL-28, > 2.5 µM (inactive); in the test on U-251, > 2.5 µM (inactive); in the test with HCT-15, 2.43 µM; in the test on COLO 205, > 2.5 µM (inactive); in the test with CCRF-CEM it was > 2.5 µM (inactive). Moreover, the GI50 in the test with OVCAR-5 is > 2.5 µM (inactive); in the test on OVCAR-3 it was > 2.5 µM (inactive); in the test with SF-268 it was > 2.5 µM (inactive); in the test on UO-31 it was > 2.3 µM (inactive); in the test on RXF 393, > 2.5 µM (inactive); with SW-620, > 2.5 µM (inactive). Further, the GI50 with HOP-62 is > 2.5 µM (inactive); in the test with NCI-H23 it was > 2.5 µM (inactive); in the test with SN12C, > 2.5 µM (inactive); in the test on SK-MEL-5, > 2.5 µM (inactive); in the test on SF-295 it was > 2.5 µM (inactive); in the test on HT-29 it was > 2.32 µM (inactive). The GI50 in the test with SNB-19 was > 2.5 µM (inactive); in the test on NCI-H460 it was 1.51 µM (inactive).
In the case of `O=[N+]([O-])c1cc2ncc(-c3ccccc3)c(O)c2cc1/C(Cl)=C/c1ccccc1`, the GI50 was 5.6 µM (inactive) in the test with OVCAR-8; 17.2 µM (inactive) in the test on SK-MEL-28; 6.5 µM (inactive) with U-251; 11.1 µM with HCT-15; 7.82 µM (inactive) in the test with COLO 205; 4.43 µM (inactive) in the test on CCRF-CEM. The GI50 in the test on OVCAR-5 is > 44.7 µM (inactive); in the test on OVCAR-3, 2.59 µM (inactive); in the test with SF-268, 3.62 µM (inactive); with UO-31, 9.89 µM (inactive); in the test on RXF 393 it was 8.17 µM (inactive); in the test with SW-620, 6.71 µM (inactive). Further, the GI50 in the test with HOP-62 was 16.3 µM (inactive); in the test on NCI-H23 it was 7.67 µM (inactive); in the test on SN12C, 14.2 µM (inactive); with SK-MEL-5 it was 5.04 µM (inactive); with SF-295, 6.65 µM (inactive); in the test on HT-29, 13.4 µM (inactive). The GI50 in the test with SNB-19 is 16.3 µM (inactive); with NCI-H460 it was 9.16 µM (inactive).
Take `COc1cc(/N=N\c2cccc(S(=O)(=O)O)c2)c(C)cc1/N=N\c1ccc(/C=C/c2ccc(/N=[N+](/[O-])c3ccc(/C=C/c4ccc(/N=N\c5cc(C)c(/N=N/c6cccc(S(=O)(=O)O)c6)cc5OC)cc4)c(S(=O)(=O)O)c3)cc2S(=O)(=O)O)cc1`: the GI50 was > 100 µM (inactive) in the test with OVCAR-8; > 100 µM (inactive) in the test with SK-MEL-28; > 100 µM (inactive) with U-251; more than 100 µM in the test on HCT-15; > 100 µM (inactive) with COLO 205; > 100 µM (inactive) in the test on CCRF-CEM. Moreover, the GI50 with OVCAR-5 was > 84.5 µM (inactive); with OVCAR-3, > 100 µM (inactive); in the test on SF-268 it was > 100 µM (inactive); with UO-31, > 100 µM (inactive); in the test on RXF 393 it was > 100 µM (inactive); with SW-620 it was > 100 µM (inactive). The GI50 with HOP-62, in the test on NCI-H23, with SN12C, in the test on SK-MEL-5, in the test on SF-295 and in the test with HT-29 was > 100 µM (inactive) in each case. Further, the GI50 in the test with SNB-19 and in the test on NCI-H460 was > 100 µM (inactive) in each case.
On to `CC(=O)/C=C/c1c[nH]c(=O)[nH]c1=O`, for which the GI50 in the test with OVCAR-8 is 241 µM (inactive); in the test on SK-MEL-28, 190 µM (inactive); in the test on U-251, 151 µM (inactive); in the test on HCT-15, 210 µM; with COLO 205, 154 µM (inactive); in the test on CCRF-CEM, 92 µM (inactive). The GI50 is 303 µM (inactive) in the test with OVCAR-5; 180 µM (inactive) with OVCAR-3; 168 µM (inactive) with SF-268; 130 µM (inactive) in the test with UO-31; 126 µM (inactive) in the test on RXF 393; 223 µM (inactive) in the test on SW-620. Also, the GI50 in the test with HOP-62 was 303 µM (inactive); in the test with NCI-H23, 257 µM (inactive); in the test with SN12C, 142 µM (inactive); in the test with SK-MEL-5, 271 µM (inactive); with SF-295 it was 304 µM (inactive); in the test with HT-29, 420 µM (inactive). Further, the GI50 with SNB-19 was 295 µM (inactive); with NCI-H460 it was 186 µM (inactive).
Take `Cc1ccc(C(=O)C2CC3(CCC2(O)c2ccc(C)cc2)CC(=O)Nc2ccccc2C3=O)cc1` (stereo not given): the GI50 in the test on OVCAR-8 was > 100 µM (inactive); with SK-MEL-28 it was > 100 µM (inactive); in the test on U-251, 8.39 µM (inactive); with HCT-15, more than 100 µM; in the test on COLO 205, > 100 µM (inactive); in the test with CCRF-CEM, 5.66 µM (inactive). Also, the GI50 with OVCAR-5 was > 100 µM (inactive); with OVCAR-3, > 100 µM (inactive); in the test with SF-268, > 100 µM (inactive); in the test on UO-31, > 100 µM (inactive); with RXF 393, 16.1 µM (inactive); in the test on SW-620, > 100 µM (inactive). The GI50 with HOP-62 was 99.3 µM (inactive); in the test with NCI-H23, > 100 µM (inactive); in the test on SN12C, > 100 µM (inactive); in the test with SK-MEL-5 it was 6.89 µM (inactive); in the test with SF-295 it was 28.4 µM (inactive); in the test with HT-29, > 100 µM (inactive). The GI50 with SNB-19 is 51.6 µM (inactive); with NCI-H460, 40 µM (inactive).
As to `COc1ccc(-c2cc(-c3ccccc3)c(C#N)c(=O)n2C2OC(CO)C(O)C(O)C2O)cc1` (stereo not given), the GI50 is > 100 µM (inactive) with OVCAR-8; > 100 µM (inactive) in the test on SK-MEL-28; > 100 µM (inactive) in the test with U-251; more than 100 µM in the test with HCT-15; > 100 µM (inactive) in the test with COLO 205; > 100 µM (inactive) in the test on CCRF-CEM. Besides, the GI50 with OVCAR-5, in the test with OVCAR-3, with SF-268, with UO-31, with RXF 393 and in the test with SW-620 was > 100 µM (inactive) in each case. The GI50 in the test on HOP-62, in the test with NCI-H23, in the test on SN12C, with SK-MEL-5, in the test with SF-295 and in the test with HT-29 was > 100 µM (inactive) in each case. Moreover, the GI50 with SNB-19 and in the test on NCI-H460 was > 100 µM (inactive) each time.
As for `Cc1ccc(N(O)C(C)(C)C)cc1`, the GI50 in the test with OVCAR-8 is > 100 µM (inactive); in the test with SK-MEL-28 it was > 100 µM (inactive); in the test with U-251, > 100 µM (inactive); in the test on HCT-15, more than 100 µM; in the test on COLO 205, > 100 µM (inactive); in the test with CCRF-CEM it was > 100 µM (inactive). Besides, the GI50 in the test on OVCAR-5, with OVCAR-3, in the test with SF-268, in the test with UO-31, in the test with RXF 393 and in the test on SW-620 was > 100 µM (inactive) each time. In addition, the GI50 with HOP-62, in the test on NCI-H23, in the test with SN12C, in the test with SK-MEL-5, in the test on SF-295 and in the test with HT-29 was > 100 µM (inactive) each time. Moreover, the GI50 in the test on SNB-19 and in the test on NCI-H460 was > 100 µM (inactive) in each case.
On to `Nc1nc(=O)n(CC(O)CO)s1` (stereo not given), for which the GI50 in the test on OVCAR-8 was > 100 µM (inactive); in the test on SK-MEL-28, < 0.01 µM (active); in the test with U-251, > 100 µM (inactive); in the test on HCT-15, more than 100 µM; with COLO 205, > 100 µM (inactive); in the test with CCRF-CEM, > 100 µM (inactive). Also, the GI50 in the test with OVCAR-5, with OVCAR-3, with SF-268, in the test with UO-31, with RXF 393 and in the test on SW-620 was > 100 µM (inactive) throughout. Also, the GI50 in the test with HOP-62, with NCI-H23, in the test with SN12C, in the test with SK-MEL-5, with SF-295 and in the test on HT-29 was > 100 µM (inactive) each time. The GI50 in the test with SNB-19 and in the test on NCI-H460 was > 100 µM (inactive) each time.
Take `Cc1cccc(C)c1NC(=S)N/C=C(\C#N)C(N)=O`: the GI50 in the test with OVCAR-8 is > 100 µM (inactive); in the test on SK-MEL-28, > 100 µM (inactive); in the test on U-251, > 100 µM (inactive); in the test on HCT-15 it was more than 100 µM; with COLO 205 it was > 100 µM (inactive); in the test on CCRF-CEM, > 100 µM (inactive). Also, the GI50 in the test with OVCAR-5, in the test on OVCAR-3, with SF-268, in the test with UO-31, with RXF 393 and in the test on SW-620 was > 100 µM (inactive) each time. Further, the GI50 with HOP-62, in the test with NCI-H23, in the test on SN12C, with SK-MEL-5, in the test on SF-295 and with HT-29 was > 100 µM (inactive) in each case. In addition, the GI50 with SNB-19 and in the test with NCI-H460 was > 100 µM (inactive) in each case.
